In this experiment the target is T1, Human Factor D (Homo sapiens, UniProt P00746).
T1 construct: purified from human serum; purchased Complement Technology, Inc; host or cells: human serum (natural protein, not recombinant)
Briefly: Human Factor D Assay. The experiment is classed as biochemical. The following applies: Human Factor D 80 nM, substrate Z-L-Lys-SBzl, read-out: IC50 (Stars). The procedure, abridged: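 Serum-purified human factor D (80 nM final) preincubated 5 min at room temperature with test compound in 50 mM Tris, 1M NaCl, pH 7.5. Z-L-Lys-SBzl substrate and DTNB then added, each at 100 μM final. IC50 from nonlinear regression of reaction rate against compound concentration.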

Read-outs that look alike come from different tables or passages of the source.

T1 sequence (P00746 26-253): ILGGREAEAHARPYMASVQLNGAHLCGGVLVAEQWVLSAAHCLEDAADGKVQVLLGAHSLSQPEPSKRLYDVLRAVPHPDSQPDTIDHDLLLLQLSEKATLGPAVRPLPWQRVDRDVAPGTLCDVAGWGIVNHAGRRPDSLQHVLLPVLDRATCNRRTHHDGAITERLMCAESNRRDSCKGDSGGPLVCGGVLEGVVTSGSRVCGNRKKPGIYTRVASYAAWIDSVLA

Turning to `CC(=O)c1cn(CC(=O)N2[C@H](C(=O)Nc3nc(Br)c(F)cc3C)C[C@@]3(C)C[C@@H]23)c2c(C)cc(-c3cnc(C)nc3)cc12` [Compound 144, (1R,3S,5R)-2-(2-(3-acetyl-7-methyl-5-(2-methylpyrimidin-5-yl)-1H-indol-1-yl)acetyl)-N-(6-bromo-5-fluoro-3-methylpyridin-2-yl)-5-methyl-2-azabicyclo[3.1.0]hexane-3-carboxamide], the IC50 (Table 2) was below 1000 nM.

For `CC(=O)c1cn(CC(=O)N2[C@H](C(=O)Nc3nc(Br)ccc3C)C[C@@]3(C)C[C@@H]23)c2c(C)cc(-c3cnc(C(C)F)nc3)cc12` (stereo partly drawn) [Compound 216, (1R,3S,5R)-2-(2-(3-acetyl-5-(2-(1-fluoroethyl)pyrimidin-5-yl)-7-methyl-1H-indol-1-yl)acetyl)-N-(6-bromo-3-methylpyridin-2-yl)-5-methyl-2-azabicyclo[3.1.0]hexane-3-carboxamide], the IC50 (Table 2) was below 1000 nM.

In the case of `CC(=O)c1nn(CC(=O)N2[C@H](C(=O)N[C@@H](C)[C@H]3CC3(Cl)Cl)C[C@@]3(C)C[C@@H]23)c2ccc(-c3cnc(C)nc3)cc12` [Compound 26, (1R,3S,5R)-2-(2-(3-acetyl-5-(2-methylpyrimidin-5-yl)-1H-indazol-1-yl)acetyl)-N-((S)-1-((R)-2,2-dichlorocyclo-propyl)ethyl)-5-methyl-2-azabicyclo[3.1.0] hexane-3-carboxamide], under “assay of Example 3”, the IC50 is below 1000 nM.

As for `Cc1ncc(-c2cc3c(C(N)=O)nn(CC(=O)N4C[C@H]5C[C@H]5[C@H]4C(=O)Nc4nc(Br)c(F)cc4C)c3c(C)n2)cn1` [Compound 111, 1-{2-[2-(6-Bromo-5-fluoro-3-methyl-pyridin-2-ylcarbamoyl)-3-aza-bicyclo[3.1.0]hex-3-yl]-2-oxo-ethyl}-7-methyl-5-(2-methyl-pyrimidin-5-yl)-1H-pyrazolo[3,4-c]pyridine-3-carboxylic acid amide], where the note is “Table 2”, the IC50 was below 1000 nM.

In the case of `CC(=O)c1nn(CC(=O)N2[C@H](C(=O)Nc3nc(C(F)(F)F)ccc3C)C[C@@]3(C)C[C@@H]23)c2ccc(-c3cnc4cc(C)nn4c3)cc12` [Compound 212, (1R,3S,5R)-2-(2-(3-acetyl-5-(2-methylpyrazolo[1,5-a]pyrimidin-6-yl)-1H-indazol-1-yl)acetyl)-5-methyl-N-(3-methyl-6-(trifluoromethyl)pyridin-2-yl)-2-azabicyclo[3.1.0]hexane-3-carboxamide], the IC50 (Table 2) was below 1000 nM.

Consider `CC(=O)c1cn(CC(=O)N2C[C@H]3C[C@H]3[C@H]2C(=O)Nc2nc(Br)c(F)cc2C)c2c(C3CC3)cc(-c3cnc(C)nc3)cc12` [Compound 163], for which, under “Table 2”, the IC50 is below 1000 nM.

Consider `CC(=O)c1nn(CC(=O)N2C[C@H]3C[C@H]3[C@H]2C(=O)Nc2nc(Br)ccc2C)c2c(C)cc(-c3cnc(C(C)O)nc3)cc12` (stereo partly drawn) [Compound 164, (1R,2S,5S)-3-(2-(3-acetyl-5-(2-(1-hydroxyethyl)pyrimidin-5-yl)-7-methyl-1H-indazol-1-yl)acetyl)-N-(6-bromo-3-methylpyridin-2-yl)-3-azabicyclo[3.1.0]hexane-2-carboxamide], for which the IC50 (Table 2) is below 1000 nM.

On to `CC(=O)c1nn(CC(=O)N2[C@H](C(=O)N[C@H](CO)Cc3ccccc3)C[C@@]3(C)C[C@@H]23)c2c(C)cc(-c3cnc(C)nc3)cc12` [Compound 146, (1R,3S,5R)-2-{2-[3-acetyl-7-methyl-5-(2-methylpyrimidin-5-yl)indazol-1-yl]acetyl}-N-[(2S)-1-hydroxy-3-phenylpropan-2-yl]-5-methyl-2-azabicyclo[3.1.0]hexane-3-carboxamide], for which the IC50 (Table 2) was below 1000 nM.

Consider `CONC(=O)c1nn(CC(=O)N2[C@H](C(=O)Nc3nc(Br)ccc3C)C[C@@]3(C)C[C@@H]23)c2ccc(-c3cnc(C)nc3)cc12` [Compound 9, 1-(2-((1R,3S,5R)-3-((6-Bromo-3-methylpyridin-2-yl)carbamoyl)-5-methyl-2-azabicyclo[3.1.0]hexan-2-yl)-2-oxoethyl)-N-methoxy-5-(2-methylpyrimidin-5-yl)-1H-indazole-3-carboxamide], for which the IC50 (assay of Example 3) was below 1000 nM.

Consider `CC(=O)c1nn(CC(=O)N2[C@H](C(=O)Nc3nc(Br)ccc3C)C[C@@]3(C)C[C@@H]23)c2c(C)cc(-c3cnc(C)nc3O)cc12` [Compound 28, (1R,3S,5R)-2-(2-(3-acetyl-5-(4-hydroxy-2-methylpyrimidin-5-yl)-7-methyl-1H-indazol-1-yl)acetyl)-N-(6-bromo-3-methylpyridin-2-yl)-5-methyl-2-azabicyclo[3.1.0]hexane-3-carboxamide], for which the IC50 (assay of Example 3) was below 1000 nM.

Consider `CC(=O)c1nn(CC(=O)N2[C@H](C(=O)NC(C)Cc3ccco3)C[C@@]3(C)C[C@@H]23)c2c(C)cc(-c3cnc(C)nc3)cc12` (stereo partly drawn) [Compound 180, (1R,3S,5R)-2-{2-[3-acetyl-7-methyl-5-(2-methylpyrimidin-5-yl)indazol-1-yl]acetyl}-N-[1-(furan-2-yl)propan-2-yl]-5-methyl-2-azabicyclo[3.1.0]hexane-3-carboxamide], for which the IC50 (Table 2) is below 1000 nM.

Regarding `CC(=O)c1nn(CC(=O)N2[C@H](C(=O)Nc3cc(C)cc(Br)n3)C[C@@]3(C)C[C@@H]23)c2c(C)cc(-c3cnc(CO)nc3)cc12` [Compound 93, (1R,3S,5R)-2-(2-(3-acetyl-5-(2-(hydroxymethyl)pyrimidin-5-yl)-7-methyl-1H-indazol-1-yl)acetyl)-N-(6-bromo-4-methylpyridin-2-yl)-5-methyl-2-azabicyclo[3.1.0]hexane-3-carboxamide], the IC50 (Table 2) was below 1000 nM.

As for `CC(=O)c1nn(CC(=O)N2[C@H]3CC[C@H](C3)[C@H]2C(=O)Nc2nc(C(F)(F)F)ccc2C)c2c(C)cc(-c3cnc4cc(C)nn4c3)cc12` [Compound 223, (1S,3S,4R)-2-(2-(3-acetyl-7-methyl-5-(2-methylpyrazolo[1,5-a]pyrimidin-6-yl)-1H-indazol-1-yl)acetyl)-N-(3-methyl-6-(trifluoromethyl)pyridin-2-yl)-2-azabicyclo[2.2.1]heptane-3-carboxamide], the IC50 (Table 2) was below 1000 nM.

As to `CC(=O)c1nn(CC(=O)N2[C@H](C(=O)Nc3nc(Br)ccc3C3CC3)C[C@@]3(C)C[C@@H]23)c2ccc(-c3cnc(CO)nc3)cc12` [Compound 81, (1R,3S,5R)-2-(2-(3-acetyl-5-(2-(hydroxymethyl)pyrimidin-5-yl)-1H-indazol-1-yl)acetyl)-N-(6-bromo-3-cyclopropylpyridin-2-yl)-5-methyl-2-azabicyclo[3.1.0]hexane-3-carboxamide], the IC50 (Table 2) is below 1000 nM.

With `CC(=O)c1nn(CC(=O)N2[C@H](C(=O)Nc3nc(Br)c(F)cc3C)C[C@@]3(C)C[C@@H]23)c2c(C)cc(-c3cnc(C(C)O)cn3)cc12` (stereo partly drawn) [Compound 204, (1R,3S,5R)-2-(2-(3-acetyl-5-(5-(1-hydroxyethyl)pyrazin-2-yl)-7-methyl-1H-indazol-1-yl)acetyl)-N-(6-bromo-5-fluoro-3-methylpyridin-2-yl)-5-methyl-2-azabicyclo[3.1.0]hexane-3-carboxamide], the IC50 (Table 2) was below 1000 nM.

In the case of `COC(=O)c1ncc(-c2ccc3c(c2)c(C(C)=O)nn3CC(=O)N2[C@H](C(=O)Nc3nc(Br)ccc3C)C[C@@]3(C)C[C@@H]23)cn1` [Compound 46, methyl 5-(3-acetyl-1-(2-((1R,3S,5R)-3-((6-bromo-3-methylpyridin-2-yl)carbamoyl)-5-methyl-2-azabicyclo[3.1.0]hexan-2-yl)-2-oxoethyl)-1H-indazol-5-yl)pyrimidine-2-carboxylate], for the setting “Table 2”, the IC50 is below 1000 nM.

In the case of `CC(=O)c1nn(CC(=O)N2[C@H](C(=O)Nc3cncc(Br)n3)C[C@@]3(C)C[C@@H]23)c2ccc(-c3cnc(CO)nc3)cc12` [Compound 64, (1R,3S,5R)-2-(2-(3-acetyl-5-(2-(hydroxymethyl)pyrimidin-5-yl)-1H-indazol-1-yl)acetyl)-N-(6-bromopyrazin-2-yl)-5-methyl-2-azabicyclo[3.1.0]hexane-3-carboxamide], the IC50 (Table 2) is below 1000 nM.

As for `CC(=O)c1nn(CC(=O)N2[C@H](C(=O)NCCC3CCC3)C[C@@]3(C)C[C@@H]23)c2c(C)cc(-c3cnc(C)nc3)cc12` [Compound 104, (1R,3S,5R)-2-{2-[3-acetyl-7-methyl-5-(2-methylpyrimidin-5-yl)indazol-1-yl]acetyl}-N-(2-cyclobutylethyl)-5-methyl-2-azabicyclo[3.1.0]hexane-3-carboxamide], for the setting “Table 2”, the IC50 is below 1000 nM.

With `CC(=O)c1cn(CC(=O)N2[C@H](C(=O)Nc3nc(Br)ccc3C)C[C@@]3(C)C[C@@H]23)c2c(C)cc(-c3cnc(C(C)O)nc3)cc12` (stereo partly drawn) [Compound 157, (1R,3S,5R)-2-(2-(3-acetyl-5-(2-(1-hydroxyethyl)pyrimidin-5-yl)-7-methyl-1H-indol-1-yl)acetyl)-N-(6-bromo-3-methylpyridin-2-yl)-5-methyl-2-azabicyclo[3.1.0]hexane-3-carboxamide], the IC50 (Table 2) is below 1000 nM.

Regarding `CC(=O)c1nn(CC(=O)N2[C@H](C(=O)Nc3nc(Br)ccc3C)C[C@@]3(C)C[C@@H]23)c2c(C)cc(-c3cnc(CO)nc3)cc12` [Compound 27, (1R,3S,5R)-2-(2-(3-Acetyl-5-(2-(hydroxymethyl)pyrimidin-5-yl)-7-methyl-1H-indazol-1-yl)acetyl)-N-(6-bromo-3-methylpyridin-2-yl)-5-methyl-2-azabicyclo[3.1.0]hexane-3-carboxamide], the IC50 (assay of Example 3) was below 1000 nM.

Turning to `CC(=O)c1nn(CC(=O)N2[C@H](C(=O)N[C@@H](C)C3CCCCC3)C[C@@]3(C)C[C@@H]23)c2c(C)cc(-c3cnc(C)nc3)cc12` [Compound 72, (1R,3S,5R)-2-(2-(3-Acetyl-7-methyl-5-(2-methylpyrimidin-5-yl)-1H-indazol-1-yl)acetyl)-N—((S)-1-cyclohexylethyl)-5-methyl-2-azabicyclo[3.1.0]hexane-3-carboxamide], the IC50 (Table 2) was below 1000 nM.

In general, IC50 refers to the point on the concentration scale where inhibition reaches its midpoint.

For the origin of these results see patent publication US20230022157A1 (Achillion Pharmaceuticals, Inc., priority 2018, published 2023).
